PubChem BioAssay AID2842 (Southern Research Institute, 2010)
In brackets after ≈: the same amount, converted by molar mass.

Test system: M. tuberculosis H37Rv growth inhibition
Assay: Mycobacterium tuberculosis H37Rv growth inhibition, putative kinase inhibitor library, confirmatory dose response (AID 2842);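 note: bacteria incubated one week before Alamar blue readout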

| Compound | IC90 [µg/mL] |
| --- | --- |
| O=C(Nc1nnc(-c2cccs2)o1)C1=COCCO1 | 6.18 (≈ 22.1 µM) |
| O=C(Nc1nc(-c2cccs2)c(C(=O)C(F)(F)F)s1)c1cc(-c2ccccc2)nc2ccccc12 | 24.4 (≈ 47.9 µM) |
| CS(=O)(=O)Nc1cccc(C2=NN(c3nc(-c4ccccc4)c4cc(Cl)ccc4n3)C(c3ccco3)C2)c1 (stereo not drawn) | 1.42 (≈ 2.61 µM) |
| COc1ccc(C(=O)Nc2nnc(C3=COCCO3)o2)cc1 | 3.3 (≈ 10.9 µM) |
| CCC(=O)Nc1nnc(-c2ccc(OC)cc2)o1 | 4.39 (≈ 17.8 µM) |
| CCOc1ccc(NCCCn2c(C)cn3c4c(=O)[nH]c(=O)n(C)c4nc23)cc1 | 20.5 (≈ 51.7 µM) |
| C=CCOC(=O)C1=C(C)NC(SCC(=O)OCC)=C(C#N)C1c1cccs1 (stereo not drawn) | 4.44 (≈ 11 µM) |
| Cc1ccc2sc(NNC(=O)C3COc4ccccc4O3)nc2c1C (stereo not drawn) | 0.88 (≈ 2.48 µM) |
| O=c1[nH]c(N/N=C/c2cccs2)nnc1-c1ccccc1 | 21.6 (≈ 72.5 µM) |
| CS(=O)(=O)Nc1cccc(C2=NN(c3nc(-c4ccccc4)c4cc(Cl)ccc4n3)C(c3ccccc3F)C2)c1 (stereo not drawn) | 6.67 (≈ 11.7 µM) |
| CC1CN(c2ncnc3c2c(-c2ccccc2)cn3-c2ccccc2)CC(C)O1 (stereo not drawn) | 29.1 (≈ 75.8 µM) |
| O=C(/C=C/c1cccs1)Nc1nnc(-c2ccc3c(c2)OCCO3)o1 | 37 (≈ 104 µM) |
| COc1ccc(-c2nnc(NC(=O)c3ccccc3Br)o2)cc1 | 82.2 (≈ 220 µM) |
| COc1ccc(-c2nnc(NC(=O)c3ccc(Cl)s3)o2)cc1 | 0.94 (≈ 2.8 µM) |
| Fc1cccc2sc(N3CCCC3)nc12 | 86.3 (≈ 388 µM) |
| O=C(Nc1nnc(C2=COCCO2)o1)c1cc(Cl)cc(Cl)c1 | 53.7 (≈ 157 µM) |
| COc1ccccc1-c1cnn2c(NC3CCCCC3)cc(C)nc12 | 13.5 (≈ 40.2 µM) |
| COc1ccc(-c2nnc(NC(=O)c3ccccc3C)o2)cc1 | 9.97 (≈ 32.2 µM) |
| CCCC(=O)Nc1nnc(-c2ccc(C)cc2C)o1 | 2.25 (≈ 8.68 µM) |
| O=C(Nc1nnc(-c2ccc(Br)cc2)o1)c1ccc(S(=O)(=O)N2CCCCCC2)cc1 | 16 (≈ 31.7 µM) |

| Compound | IC90 [µg/mL] |
| --- | --- |
| COc1cccc2sc(N(CCCn3ccnc3)C(=O)c3cccs3)nc12 | 5.7 (≈ 14.3 µM) |
| C=CCOC(=O)COc1ccc2cc(-c3ccc(OC)cc3)c(=O)oc2c1 | 3.58 (≈ 9.77 µM) |
| Cc1ccc(C)c(-c2nnc(NC(=O)CCc3ccccc3)o2)c1 | 10.9 (≈ 33.8 µM) |
| O=C(Nc1nnc(-c2cc(Cl)ccc2Cl)o1)c1ccc2c(c1)CCCC2 | 25.8 (≈ 66.5 µM) |
| COc1ccc2sc(Nc3nnc(-c4ccco4)o3)nc2c1 | 80 (≈ 255 µM) |
| O=C(Nc1nnc(-c2cc(Cl)ccc2Cl)o1)c1ccc(S(=O)(=O)N2CCOCC2)cc1 | 3.86 (≈ 7.99 µM) |
| O=c1cnnc(N/N=C/c2c(O)ccc3ccccc23)[nH]1 | < 0.2 |
| Cc1ccc(C)c(-c2nnc(NC(=O)Cc3cccc4ccccc34)o2)c1 | 6.3 (≈ 17.6 µM) |
| O=C(Nc1cccc(Cl)c1)Nc1c2c(nn1-c1ccccc1)CSC2 | 19.7 (≈ 53.2 µM) |
| COc1cccc(-c2csc(NC(=O)c3ccc4c(c3)OCCO4)n2)c1 | 14.3 (≈ 39 µM) |
| COc1ccccc1N1CCN(c2nc(Nc3ccc(C)c(C)c3)c3nccnc3n2)CC1 | 1.68 (≈ 3.8 µM) |
| O=C(Nc1nnc(-c2cc(Cl)ccc2Cl)o1)c1cc(Cl)ccc1Cl | 0.49 (≈ 1.22 µM) |
| O=C(Nc1nnc(-c2cc(Cl)ccc2Cl)o1)C1CC1 | 7.42 (≈ 24.9 µM) |
| O=C(Nc1nc2c(s1)CCCC2)c1ccc(Cc2ccccc2)cc1 | 7.01 (≈ 20.1 µM) |
| CCc1cccc2sc(N(CCCn3ccnc3)C(=O)c3ccc(OC)c(OC)c3)nc12 | 13.9 (≈ 30.9 µM) |
| O=C(CSc1ncnc2c1oc1ccccc12)OCc1ccccc1 | 12.1 (≈ 34.6 µM) |
| COc1cc2c(=O)c(C(=O)c3ccc(Cl)cc3)cn(Cc3ccccc3F)c2cc1OC | 45 (≈ 99.5 µM) |
| COc1ccc2nc(Nc3nc4c(OC)cccc4s3)sc2c1 | 3.38 (≈ 9.84 µM) |
| O=C(Nc1nc2c(s1)CCc1ccccc1-2)c1cccc(Cl)c1 | 12.4 (≈ 36.5 µM) |
| O=C(NNc1nc2c(Cl)cccc2s1)c1coc2ccccc2c1=O | 11.1 (≈ 29.9 µM) |

| Compound | IC90 [µg/mL] |
| --- | --- |
| CC1(C)CC(=O)c2sc(NC(=O)c3ccc(NS(=O)(=O)c4ccc(Cl)cc4)cc3)nc2C1 | 15.5 (≈ 31.7 µM) |
| Cc1ccc(Nc2nc(N3CCCC3)nc3nccnc23)cc1C | 3.21 (≈ 10 µM) |
| COc1ccc(Nc2c3c4c(cccc4[nH]c2=O)C(=O)c2ccccc2-3)cc1 | 12.4 (≈ 33.7 µM) |
| O=C(Nc1nnc(-c2cccs2)o1)c1ccc([N+](=O)[O-])s1 | 1.69 (≈ 5.24 µM) |
| O=C(CSCc1ccc(Cl)c(Cl)c1)Nc1ccc(F)cc1 | 12.9 (≈ 37.4 µM) |
| Fc1cc(F)c2nc(N3CCCC3)sc2c1 | 18.2 (≈ 76 µM) |
| CCOC(=O)c1c(NC(=O)c2cccc3ccccc23)sc2c1CCN(CC)C2 | 5.45 (≈ 13.3 µM) |
| CC(C)OC(=O)c1ccc(NC(=O)C2COc3ccccc3O2)cc1 (stereo not drawn) | 7.2 (≈ 21.1 µM) |
| O=C(Nc1nnc(-c2ccco2)o1)C1=COCCO1 | 50.9 (≈ 193 µM) |
| O=C(OCn1nnc2ccccc2c1=O)c1ccccc1 | 1.41 (≈ 5.01 µM) |
| O=C(Nc1nnc(C2=COCCO2)o1)c1ccc(Cc2ccccc2)cc1 | 28.1 (≈ 77.4 µM) |
| COC(=O)c1c2c(n3ccc(C)cc13)C(=O)c1ccccc1C2=O | 0.35 (≈ 1.1 µM) |
| COc1ccc(-c2nnc(NC(=O)C3CC3)o2)cc1 | 1.06 (≈ 4.09 µM) |
| COc1ccc(-c2nnc(NC(=O)c3ccc4c(c3)OCCO4)o2)c(OC)c1 | 24.7 (≈ 64.4 µM) |
| O=C(Nc1nnc(C2=COCCO2)o1)c1ccc2c(c1)CCCC2 | 0.44 (≈ 1.34 µM) |
| CSc1ccc2nc(Nc3nnc(-c4ccc5c(c4)OCCO5)o3)sc2c1 | 15.1 (≈ 38 µM) |
| Cc1ccc2sc(N(CCCn3ccnc3)C(=O)c3ccc(F)cc3)nc2c1C | 3.68 (≈ 9.01 µM) |
| Cc1cc(NC(=O)CSc2nnc(-c3ccncc3)o2)no1 | 7.04 (≈ 22.2 µM) |
